Results on 1 compound are retold here after patent publication US6534539B2, “Pharmaceutical composition and method for treatment of dyspepsia” (Hoffman-La Roche Inc., priority 2000, dated 2003).

Structures are written as SMILES.

Holding throughout (type): in vivo, human
The subject of assay [1] is normal volunteers, clinical model of dyspepsia (gastric distension). Put plainly: Pressure-volume relationships during gastric distensions and duodenal infusion of fat emulsion (gastric barostat). The conditions noted are these: p <0.05. An excerpt:
(§1) The reduction of dyspeptic symptoms by lipase inhibitors, particularly orlistat, was shown in human clinical studies that measured functional dyspepsia. Specifically, we measured the reduction of dyspeptic symptoms after administration of orlistat to normal volunteers (healthy subjects without a history of gastrointestinal disease (8 female and 7 male), aged 24-38 years; normal body weight (BMI (kg/m^2): females: 21.9±0.4, males: 23.4±0.4) during infusion of a fat emulsion into the duodenum in a clinical model of idopathic dyspepsia (gastric distension). BMI means body mass index.
(§2) Fat emulsions (Table 1) were infused intraduodenally via a single-lumen, naso-duodenal polyvinyl tube as described previously (Feinle, AJP2000), while the stomach was distended. Gastrointestinal sensations were assessed by a visual analog questionnaire. […]
(§3) Studies were performed in a double-blind, placebo-controlled, cross-over fashion in randomised order at least one week apart. […] At first, the minimal distending pressure (MDP) was determined by increasing intragastric pressure in steps of 1 mmHg/min. Pressure was then fixed at MDP and fasting tone recorded until variations in gastric volume were no longer observed. […] Two isobaric distensions were performed, 15 min apart from each other, by increasing intrabag pressure in steps of 1 mmHg/min, while corresponding volumes were monitored. […]

Assay [2] shares this test system. Description: Gastrointestinal sensations (visual analogue scales) during gastric distensions and duodenal infusion of fat emulsion.
Description: as §1, §2, §3

For assay [3] the test system is unchanged. Description: Changes in gastric tone (gastric baseline volume at MDP) during duodenal infusions. The conditions noted are these: orlistat added to oil emulsion infused intraduodenally; p <0.05.
Description: as §1
Fat emulsions (Table 1) were infused intraduodenally via a single-lumen, naso-duodenal polyvinyl tube as described previously (Feinle, AJP2000), while the stomach was distended. Gastrointestinal sensations were assessed by a visual analog questionnaire.
as §3

On to `CCCCCCCCCCC[C@@H](C[C@@H]1OC(=O)[C@H]1CCCCCC)OC(=O)[C@H](CC(C)C)NC=O` [orlistat], for which, in assay [1], the “Maximally tolerated pressure during gastric distension” value is “significantly increased”. In assay [2] (increasing intragastric pressure during duodenal fat infusion), the “Effects of LCTs on scores for fullness, bloating, nausea, pressure and hunger” value was “significantly diminished”. The “Intensity of stomach fullness and sensitivity, nausea and bloating” value in assay [2] (orlistat added to fat emulsion infused into the duodenum, gastric distension by inflatable balloon) is “reduced”. For the same compound, the “Gastric baseline volume change during infusions” value in assay [3] was “completely abolished”.
